Consider eight compounds from patent US20250170248A1, “SMARCA DEGRADERS AND USES THEREOF” (Kymera Therapeutics, Inc., priority 2021, published 2025).

Where only a bound is given, the exact number is not on record here.

Common to all, as to format: cell-based
Test [1] concerns the target T1, SMARCA2 (Homo sapiens, UniProt P51531). The test can be described thus: SMARCA2 Western blot degradation in MV4-11 cells. The following applies: for Dmax: MV4-11, MV4-11 cells, read-out: SMARCA2 MSD MV411 degradation 24 h: average Dmax %; for Dmax / DC50: 24 h; for DC50 / Selectivity in MV411: MV4-11 cells; for DC50: read-out: SMARCA2 MSD MV411 degradation 24 h: Mean external-Abs DC50; for Selectivity in MV411: SMARCA2/4 selectivity. Further details: SMARCA2/SMARCA4 protein degradation selectivity in MV4-11 cells; endogenous in cells; host or cells: MV4-11. On the technique in general: In western blotting, separated proteins are transferred to a membrane and probed.

The next test has as its target T2, SMARCA4 (Homo sapiens, UniProt P51532).
T2 construct: SMARCA2/SMARCA4 protein degradation selectivity in MV4-11 cells; endogenous in cells; host or cells: MV4-11
The test can be described thus: SMARCA4 Western blot degradation in MV4-11 cells. The conditions noted are these: 24 h; for Dmax: MV4-11, MV4-11 cells, read-out: SMARCA4 MSD MV411 degradation 24 h: average Dmax %; for DC50: MV4-11 cells, read-out: SMARCA4 MSD MV411 degradation 24 h: Mean external-Abs DC50. Summed up: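 24 h compound exposure, MV4-11; RIPA lysates → SDS-PAGE → NC membrane; anti-SMARCA2/BRM, anti-BRG1, β-actin loading control; LI-COR fluorescence read. DC50 and Dmax at 24 h reported as letter bins.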

The target of test [2] is T1, SMARCA2. Nature of the test: MSD SMARCA2 degradation in A549 cell line. The conditions noted are these: 24 h; for Dmax: A549, A549 cells; for DC50: A549 cells, read-out: SMARCA2 MSD A549 degradation 24 h: Average external-Abs DC50. In a few lines: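 A549 cells treated 24 h with compound, 3-fold series from 1000 nM. Lysates captured on MSD plates and SMARCA2 quantified with anti-SMARCA2 and SULFO-TAG secondary antibodies (electrochemiluminescence). DC50 and Dmax (% degradation at 24 h) reported as letter bins.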

T1 sequence (P51531 whole entry): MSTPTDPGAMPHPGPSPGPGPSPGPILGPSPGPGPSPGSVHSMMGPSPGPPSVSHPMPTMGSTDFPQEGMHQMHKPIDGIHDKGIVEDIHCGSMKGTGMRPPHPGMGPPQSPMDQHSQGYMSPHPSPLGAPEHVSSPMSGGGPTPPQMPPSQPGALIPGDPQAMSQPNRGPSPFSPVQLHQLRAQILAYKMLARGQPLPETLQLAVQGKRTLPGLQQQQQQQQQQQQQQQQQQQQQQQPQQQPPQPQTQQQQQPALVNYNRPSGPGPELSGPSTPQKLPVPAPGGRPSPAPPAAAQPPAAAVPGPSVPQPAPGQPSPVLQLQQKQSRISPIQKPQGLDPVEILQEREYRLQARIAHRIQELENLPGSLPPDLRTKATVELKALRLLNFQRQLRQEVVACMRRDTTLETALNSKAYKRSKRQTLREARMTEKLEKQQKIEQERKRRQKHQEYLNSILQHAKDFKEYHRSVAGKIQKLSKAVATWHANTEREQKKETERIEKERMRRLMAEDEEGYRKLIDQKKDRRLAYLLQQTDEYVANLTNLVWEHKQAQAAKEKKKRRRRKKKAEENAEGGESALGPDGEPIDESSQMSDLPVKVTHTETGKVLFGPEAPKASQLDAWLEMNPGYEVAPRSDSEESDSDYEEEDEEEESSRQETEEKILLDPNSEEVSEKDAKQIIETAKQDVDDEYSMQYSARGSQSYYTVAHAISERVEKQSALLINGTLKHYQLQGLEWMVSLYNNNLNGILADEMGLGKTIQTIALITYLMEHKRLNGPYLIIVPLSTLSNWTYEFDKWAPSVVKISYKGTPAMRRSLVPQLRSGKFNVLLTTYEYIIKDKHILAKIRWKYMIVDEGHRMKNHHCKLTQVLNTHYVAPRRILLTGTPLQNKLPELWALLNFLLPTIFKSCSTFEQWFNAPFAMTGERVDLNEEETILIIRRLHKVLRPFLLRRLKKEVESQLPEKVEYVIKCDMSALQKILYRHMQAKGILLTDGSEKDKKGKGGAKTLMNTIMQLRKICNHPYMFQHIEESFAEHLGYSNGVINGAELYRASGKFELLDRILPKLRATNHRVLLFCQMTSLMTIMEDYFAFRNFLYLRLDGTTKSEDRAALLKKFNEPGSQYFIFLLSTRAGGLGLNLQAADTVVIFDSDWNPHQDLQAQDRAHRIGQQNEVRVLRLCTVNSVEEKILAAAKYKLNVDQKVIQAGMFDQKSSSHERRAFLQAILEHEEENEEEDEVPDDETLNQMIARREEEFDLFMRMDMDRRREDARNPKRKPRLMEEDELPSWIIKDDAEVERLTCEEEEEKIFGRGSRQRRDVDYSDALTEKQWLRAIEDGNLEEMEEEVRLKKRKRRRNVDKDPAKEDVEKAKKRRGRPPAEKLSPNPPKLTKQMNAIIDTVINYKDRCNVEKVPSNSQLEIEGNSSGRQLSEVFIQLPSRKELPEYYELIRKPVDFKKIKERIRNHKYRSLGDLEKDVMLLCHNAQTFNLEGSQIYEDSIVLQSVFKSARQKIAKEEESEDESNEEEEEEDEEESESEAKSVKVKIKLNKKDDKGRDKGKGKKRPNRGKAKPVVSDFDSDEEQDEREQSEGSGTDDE
T2 sequence (P51532 whole entry): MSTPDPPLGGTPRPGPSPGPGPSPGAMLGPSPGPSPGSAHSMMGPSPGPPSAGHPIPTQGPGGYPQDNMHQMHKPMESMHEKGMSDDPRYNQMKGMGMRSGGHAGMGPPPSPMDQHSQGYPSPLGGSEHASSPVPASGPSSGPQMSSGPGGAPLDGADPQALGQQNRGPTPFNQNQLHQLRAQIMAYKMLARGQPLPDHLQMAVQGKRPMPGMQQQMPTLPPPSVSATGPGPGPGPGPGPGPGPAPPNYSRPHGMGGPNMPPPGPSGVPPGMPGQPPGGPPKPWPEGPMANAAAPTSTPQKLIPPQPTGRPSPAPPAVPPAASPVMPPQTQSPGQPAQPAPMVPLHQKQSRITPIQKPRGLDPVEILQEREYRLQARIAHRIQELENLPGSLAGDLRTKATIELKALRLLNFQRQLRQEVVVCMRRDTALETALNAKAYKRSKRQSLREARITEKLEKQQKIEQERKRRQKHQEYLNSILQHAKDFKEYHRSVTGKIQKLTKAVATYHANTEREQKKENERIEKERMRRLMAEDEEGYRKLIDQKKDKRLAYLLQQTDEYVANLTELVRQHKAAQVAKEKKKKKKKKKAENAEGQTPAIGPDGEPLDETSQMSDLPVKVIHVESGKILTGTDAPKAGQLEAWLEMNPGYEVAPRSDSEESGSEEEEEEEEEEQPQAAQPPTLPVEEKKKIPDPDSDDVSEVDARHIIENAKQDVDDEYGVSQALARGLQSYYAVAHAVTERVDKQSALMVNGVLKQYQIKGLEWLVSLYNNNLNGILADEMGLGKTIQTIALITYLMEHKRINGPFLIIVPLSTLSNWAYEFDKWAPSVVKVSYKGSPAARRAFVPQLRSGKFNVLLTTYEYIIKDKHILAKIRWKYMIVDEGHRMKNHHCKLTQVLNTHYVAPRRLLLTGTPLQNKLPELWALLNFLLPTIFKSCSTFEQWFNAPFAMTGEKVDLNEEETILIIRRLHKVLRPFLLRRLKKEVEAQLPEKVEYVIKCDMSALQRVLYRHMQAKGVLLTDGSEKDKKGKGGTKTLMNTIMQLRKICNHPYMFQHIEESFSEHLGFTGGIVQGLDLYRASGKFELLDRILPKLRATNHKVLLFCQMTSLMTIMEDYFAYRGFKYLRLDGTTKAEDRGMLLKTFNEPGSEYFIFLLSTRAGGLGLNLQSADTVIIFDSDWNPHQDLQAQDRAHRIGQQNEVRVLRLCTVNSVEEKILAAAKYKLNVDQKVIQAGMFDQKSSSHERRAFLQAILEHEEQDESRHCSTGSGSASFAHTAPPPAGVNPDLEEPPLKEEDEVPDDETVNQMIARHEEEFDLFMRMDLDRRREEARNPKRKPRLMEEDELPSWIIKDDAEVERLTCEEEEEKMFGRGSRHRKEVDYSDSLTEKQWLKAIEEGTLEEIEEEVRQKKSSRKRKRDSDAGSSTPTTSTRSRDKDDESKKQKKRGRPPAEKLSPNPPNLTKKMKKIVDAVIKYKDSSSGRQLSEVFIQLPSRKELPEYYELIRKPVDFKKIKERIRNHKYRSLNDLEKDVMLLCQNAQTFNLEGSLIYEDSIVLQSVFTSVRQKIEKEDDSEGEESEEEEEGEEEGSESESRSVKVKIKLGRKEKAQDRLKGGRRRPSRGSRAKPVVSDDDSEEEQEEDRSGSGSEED

With `C#Cc1ccc([C@H](C)NC(=O)[C@@H]2C[C@@H](O)CN2C(=O)C(c2cc(N3CC4(CC(N5CCC(N6CCC(N7CCN8c9cc(-c%10ccccc%10O)nnc9NC[C@H]8C7)CC6)CC5)C4)C3)no2)C(C)C)cc1` (some centres unmarked) [I-332], on SMARCA2 [1], the Dmax was greater than 90%, the DC50 is less than 1 nM and the “Selectivity in MV411” value is “C (C (10-100 fold))”. Besides, at SMARCA4, the Dmax is greater than 90% and the DC50 fell in the range of 1 to 10 nM. For the same compound, on SMARCA2 [2], the Dmax was greater than 90% and the DC50 was less than 10 nM.

Turning to `C#Cc1ccc(CNC(=O)[C@@H]2C[C@@H](O)CN2C(=O)[C@@H](NC(=O)N2CC3(CN(CC4CCN(c5cnc(N6CCc7[nH]c8nnc(-c9ccccc9O)cc8c7[C@@H]6C)nc5)CC4)C3)C2)C(C)(C)C)cc1` [I-165], on SMARCA2 [1], the Dmax lay within 70 to 90%, the DC50 lay in the range of 10 to 100 nM and the “Selectivity in MV411” value is reported as “D (D (<10 fold))”. Further, at SMARCA4, the Dmax lay within 70 to 90% and the DC50 is greater than 100 nM. Moreover, on SMARCA2 [2], the Dmax is greater than 90% and the DC50 was greater than 100 nM.

For `C#Cc1ccc(CNC(=O)[C@@H]2C[C@@H](O)CN2C(=O)[C@@H](N(C)C(=O)N2CC3(CC(N4CCC(c5cnc(N6CCc7[nH]c8nnc(-c9ccccc9O)cc8c7[C@H]6C)nc5)CC4)C3)C2)C(C)(C)C)cc1` [I-139], the Dmax at SMARCA2 [1] is less than 50%; on SMARCA4 it was 50 to 70%; at SMARCA2 [2] it was less than 50%. For the same compound, the DC50 at SMARCA2 [1], at SMARCA4 and at SMARCA2 [2] was greater than 100 nM throughout. Also, the “Selectivity in MV411” value at SMARCA2 [1] is given as “C (C (10-100 fold))”.

In the case of `C#Cc1ccc(CNC(=O)[C@@H]2C[C@@H](O)CN2C(=O)[C@@H](NC(=O)[C@H]2CC3(C2)C[C@H](c2cnc(N4CCC(N5CCN6c7cc(-c8ccccc8O)nnc7NC[C@H]6C5)CC4)nc2)C3)C(C)(C)C)cc1` (some centres unmarked) [I-302], the DC50 at SMARCA2 [1] fell in the range of 1 to 10 nM; at SMARCA4, 10 to 100 nM; on SMARCA2 [2], 10 to 50 nM. Further, the “Selectivity in MV411” value on SMARCA2 [1] was “C (C (10-100 fold))”.

For `C#Cc1ccc(CNC(=O)[C@@H]2C[C@@H](O)CN2C(=O)[C@@H](NC(=O)N2CC3(CC(N4CCC(c5cnc(N6CCc7[nH]c8nnc(-c9ccccc9O)cc8c7[C@H]6C)nc5)CC4)C3)C2)C(C)(C)C)cc1` (single isomer, unassigned) [I-73], at SMARCA2 [1], the Dmax was greater than 90%, the DC50 is 1 to 10 nM and the “Selectivity in MV411” value is given as “C (C (10-100 fold))”. Besides, on SMARCA4, the Dmax lay within 70 to 90% and the DC50 is 10 to 100 nM. In addition, on SMARCA2 [2], the maximal degradation (Dmax) is greater than 90% and the DC50 was less than 10 nM.

Turning to `C#Cc1ccc(CNC(=O)[C@@H]2C[C@@H](O)CN2C(=O)[C@@H](NC(=O)N2CC3(CC(N4CCC(c5cnc(N6CCc7[nH]c8nnc(-c9ccccc9O)cc8c7[C@H]6C)nc5)CC4)C3)C2)C(C)(C)C)c(OCCO)c1` [I-143], the Dmax on SMARCA2 [1], on SMARCA4 and on SMARCA2 [2] was greater than 90% throughout. Further, the DC50 at SMARCA2 [1] was 1 to 10 nM; at SMARCA4, 10 to 100 nM; at SMARCA2 [2] it was less than 10 nM. For the same compound, the “Selectivity in MV411” value at SMARCA2 [1] is reported as “C (C (10-100 fold))”.

As for `C#Cc1ccc([C@H](C)NC(=O)[C@@H]2C[C@@H](O)CN2C(=O)[C@@H](NC(=O)N2CC3(CC(N4CCN(c5cnc(N6CCc7[nH]c8nnc(-c9ccccc9O)cc8c7[C@H]6C)nc5)CC4)C3)C2)C(C)(C)CCO)cc1` [I-369], at SMARCA2 [1], the Dmax is greater than 90%, the DC50 is 1 to 10 nM and the “Selectivity in MV411” value is “C (C (10-100 fold))”. At SMARCA4, the Dmax was 70 to 90% and the DC50 is greater than 100 nM. At SMARCA2 [2], the maximal degradation (Dmax) was greater than 90% and the DC50 was less than 10 nM.

With `Cc1ncsc1-c1ccc(CNC(=O)[C@@H]2C[C@@H](O)CN2C(=O)C(c2cc(N3CCC4(CC3)CC(N3CCC(c5cnc(N6CCc7[nH]c8nnc(-c9ccccc9O)cc8c7[C@@H]6C)nc5)CC3)C4)no2)C(C)C)cc1` (single isomer, unassigned) [I-12], on SMARCA2 [1], the Dmax was 70 to 90%, the DC50 lay in the range of 10 to 100 nM and the “Selectivity in MV411” value was “D (D (<10 fold))”. Moreover, on SMARCA4, the Dmax was greater than 90% and the DC50 is 10 to 100 nM. Further, at SMARCA2 [2], the Dmax lay in the range of 70 to 90% and the DC50 lay in the range of 50 to 100 nM.

In general, Dmax refers to the greatest extent of degradation seen. The DC50 is the concentration at which degradation of the target reaches its halfway point.
